Literature values, collected in paper PMC9817006 (Journal of psychopharmacology (Oxford, England), 2022).

Key:
C57BL/6J mice = conditions: low and high doses, ref Akinola et al., 2019; cited from earlier work
[1] = systemic administration; ref Rueter et al., 2006; cited from earlier work
rats = conditions: ref Freitas et al., 2016; cited from earlier work

CN1CCC[C@H]1c1cccnc1 [nicotine]
Locomotor sensitization (in words) (C57BL/6J mice): lack of locomotor sensitization

c1cncc(OC[C@@H]2CCN2)c1 [A-85380]
Antinociception and anti-allodynic activity (in words) [1]: showing efficacy in multiple in vivo assays of antinociception, and anti-allodynic activity after systemic administration

dihydro-ß-erythroidine [DHßE]
Effect on 5IA-facilitated ICSS (in words) (rats): blocked
